Source: patent US12439921B2 (priority 2019, dated 2025)

Legend:
Assay type in all cases: in vivo
Cucumber seeds = assay: Cucumber phytotoxicity test (seed dressing); conditions: 0.5 mg/seed, 10 days after sowing; for Germination Count: sowing count 5
Method: Cucumber seeds were sown one by one in a 3 cm styrene cup filled with sterilized soil, where the seeds had been subjected to dressing treatment with a dressing dust presented in Formulation Example 1 or Formulation Example 2 so that the amount treated of the compound (1) or compound (2) would be a predetermined amount.
The germination rate was calculated 10 days after sowing. In addition, the germination rate was also calculated in the same manner for the case of sowing seeds treated with fluensulfone instead of Formulation Example 1 (compound (1)) or Formulation Example 2 (compound (2)) and for the case of sowing seeds treated with none of the compounds.

[1] = tested on: Bursaphelenchus xylophilus; assay: Bursaphelenchus xylophilus control test (cotton ball test method); parameters: key: Score 1: no influence on feeding (no effect); Score 2: feeding degree of 41% or more; Score 3: feeding degree of 21 to 40%; Score 4: feeding degree of 20% or less; Score 5: no feeding (great effect); conditions: 26° C., 5 days
Method: As a Bursaphelenchus xylophilus control test, the cotton ball test method was used to confirm the inhibitory effect on the proliferation of Bursaphelenchus xylophilus. […] The pressure was reduced in a desiccator for about 30 minutes, the solvent was removed by evaporation, and a test cotton ball was obtained. In addition, the gray mold as the test bacterium was cultured at 22° C. for 4 days in a Petri dish containing potato dextrose agar medium. Then, the test cotton ball was placed in the center of the Petri dish, and 1500 Bursaphelenchus xylophilus (100 μL of solution) were injected therein. This Petri dish was cultured at 26° C. for 5 days, and the feeding degree of the gray mold by Bursaphelenchus xylophilus was evaluated based on the following evaluation criteria. Further, evaluation was performed in the same manner when morantel was used instead of the compound (1) or (2).
Score 1: no influence on feeding (no effect)
Score 2: feeding degree of 41% or more
Score 3: feeding degree of 21 to 40%
Score 4: feeding degree of 20% or less
Score 5: no feeding (great effect)

Meloidogyne incognita [2] = assay: Meloidogyne incognita control test 1 (seed dressing); conditions: cucumber; seed dressing 0.5 mg/seed; 21 days after inoculation
Method: Cucumber seeds were sown one by one in a 3 cm styrene cup filled with sterilized soil, where the seeds had been subjected to dressing treatment with a dressing dust presented in Formulation Example 1 so that the amount treated of the compound (1) would be a predetermined amount. Then, 10 days after sowing, 200 counts/mL of the second stage larval solution of Meloidogyne incognita was inoculated at 1 mL for each seed. Then, 21 days after the inoculation, the degree of gall formation on the cucumber root was classified by a visual inspection based on the following 6-level gall formation degree criteria, and the gall index was calculated. In addition, the gall index was also calculated in the same manner for the case of sowing seeds treated with paraherquamide A instead of Formulation Example 1 (compound (1)) and for the case of sowing seeds treated with none of the compounds.
(§1) Gall index=(0×a+1×b+2×c+3×d+4×e+5×f)/((a+b+c+d+e+f) ×5)×100 • a: number of strains that meet the gall formation degree criteria of 0, b: number of strains that meet the gall formation degree criteria of 1, c: number of strains that meet the gall formation degree criteria of 2, d: number of strains that meet the gall formation degree criteria of 3, e: number of strains that meet the gall formation degree criteria of 4, and f: number of strains that meet the gall formation degree criteria of 5. […]

Ascaridia galli = Ascaridia galli control test (in vitro); conditions: 50 ppm; 24 hours; 42° C.
Method: To 10 mL of a chemical solution prepared by using Ringer's solution so that the compound (1) or the compound (2) would have a predetermined concentration, 6 Ascaridia galli were introduced, and the solution was cultured in a water bath at 42° C. The number of surviving worms was counted 24 hours after the start of culture, and the mortal worm rate was calculated.

Hymenolepis diminuta = Hymenolepis diminuta control test in infected rats; conditions: oral 20 mg/kg, 7 days after administration
Text: Rats were previously infected with Hymenolepis diminuta to prepare infected rats.

Heterodera glycines = Heterodera glycines control test (in vitro); conditions: 10 ppm; second stage larvae; 2 days after addition; 25° C.
Method: Each well of a 24-well plate was charged with 1 mL of a chemical solution prepared to have a final concentration of 0.1% acetone and a predetermined concentration of the compound (1), in which 20 to 30 larvae of Heterodera glycines at the second stage were released and left to stand in the dark at 25° C. The number of surviving and moribund worms 2 days after the addition of the chemical solution was measured. In addition, the number of surviving and moribund worms in the untreated group not treating the compound (1) was measured in the same manner, and the corrected mortal worm rate was calculated by the following formula.
Corrected mortal worm rate (%)={(mortal worm rate of treated group−mortal worm rate of untreated group)/(100−mortal worm rate of untreated group)}×100

Meloidogyne incognita [3] = assay: Meloidogyne incognita control test (soil irrigation); conditions: cucumber; soil irrigation 100 ppm, 3 mL; 21 days after inoculation
Method: Cucumber seeds were sown one by one in a 3 cm styrene cup filled with sterilized soil. After germination, 3 mL each of a chemical solution prepared with 10% acetone water was irrigated into the soil so that the compound (1) would be 100 ppm when irrigated into the soil. After 1 hour, 200 counts/mL of the second stage larval solution of Meloidogyne incognita were inoculated at 1 mL/pot. Then, 21 days after the inoculation, the degree of gall formation on the cucumber root was classified by a visual inspection based on the following 6-level gall formation degree criteria, and the gall index was calculated. In addition, the gall index, in the case of the treated group not treating the compound (1) (untreated), was also calculated in the same manner.
as §1, with “index=(0×a+1×b+2×c+3×d+4×e+5×f)/((a+b+c+d+e+f)×5)×100” for “index=(0×a+1×b+2×c+3×d+4×e+5×f)/((a+b+c+d+e+f) ×5)×100 •”

wheat = assay: Wheat growth effect test; conditions: 3 days; for Plant Height Relative to Untreated: untreated = 100; for Plant Height: root immersion
Method: Each well of a 24-well plate was charged with 200 μL of a chemical solution prepared to have a final concentration of 10% acetone and a predetermined concentration of the compound (1), and the root of the sprouting wheat was immersed therein. Then, 3 days after the immersion, the plant height of the stems and leaves was measured to evaluate the effect of the compound (1) on the growth of wheat. In addition, the plant height of the stems and leaves was also measured for the case of sowing seeds not treated with the compound (1) (untreated). Note that Table 8 also presents the relative values of plant height (relative to untreated) when the untreated case was set to 100.

Row | SMILES | Germination Rate (Cucumber seeds) | Germination Count (Cucumber seeds) | Gall Index (Meloidogyne incognita [2]) | mortal worm rate (Ascaridia galli) | control effect (Hymenolepis diminuta) | Score (feeding degree of the gray mold) ([1]; 20 μg/cotton ball, 200 ppm) | further results
1 | O=S(=O)(CCC(F)=C(F)F)c1ncc(Cl)s1 [Fluensulfone, fluensulfone, reference compound] | 0% | 0 |  |  |  |  | 
2 | Cc1ccsc1/C=C/C1=NCCCN1C [Morantel, morantel, reference compound] |  |  |  |  |  |  | Score (feeding degree of the gray mold) ([1]; 5 μg/cotton ball, 50 ppm): 5
3 | CN1C(=O)[C@]23C[C@@H]4C(C)(C)[C@@]5(C[C@@]41CN2CC[C@@]3(C)O)C(=O)Nc1c5ccc2c1OC=CC(C)(C)O2 [Paraherquamide A, paraherquamide A, reference compound] |  |  | 44 |  |  |  | 
4 | C[C@H]1CCN2C[C@@]34C[C@]5(CC(=O)N(C)C5=O)C(C)(C)[C@@H]3C[C@]12C(=O)N4C [Compound (2), asperparaline A] | 100% | 5 |  | 0 | no effect | 1 | 
5 | C[C@H]1CC(=O)N2C[C@]34C[C@]5(CC(=O)N(C)C5=O)C(C)(C)[C@@H]3CC12C(=O)N4C [Compound (1), 16-keto-aspergillimide] | 100% | 5 | 8 | 0 | no effect | 1 | corrected mortal worm rate (Heterodera glycines): 100%; Gall Index (Meloidogyne incognita [3]): 0; Plant Height Relative to Untreated (wheat; 50 ppm): 106.1; Plant Height (wheat; 50 ppm): 9.87 cm; Plant Height Relative to Untreated (wheat; 100 ppm): 98.9; Plant Height (wheat; 100 ppm): 9.20 cm; Plant Height Relative to Untreated (wheat; 200 ppm): 98.9; Plant Height (wheat; 200 ppm): 9.20 cm
